Values joined by “and” are separate entries in the source; they are usually repeats but may differ in a detail not shown here. Equal entries are not always repeated.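 Where inhibition never reached the appropriate level, the endpoint shown equals the highest concentration tested. Otherwise, values were interpolated linearly from a five-concentration, 48-hour dose response in 96-well plates. GI50 is the concentration that inhibits growth by half. The concentration for full growth arrest is given as TGI.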
How the values were obtained:
Test in all cases: DTP human tumour cell line panel, 48 h
CAKI-1 renal = system: CAKI-1 renal
COLO 205 colon = system: COLO 205 colon
DU-145 prostate = system: DU-145 prostate
HCT-15 colon = system: HCT-15 colon
HL-60(TB) leukemia = system: HL-60(TB) leukemia
K-562 leukemia = system: K-562 leukemia
NCI-H226 lung = system: NCI-H226 lung
NCI-H23 lung = system: NCI-H23 lung
UACC-62 melanoma = system: UACC-62 melanoma
SR leukemia = system: SR leukemia

| Structure (SMILES) | TGI (CAKI-1 renal) | TGI (COLO 205 colon) | TGI (DU-145 prostate) | TGI (HCT-15 colon) | TGI (HL-60(TB) leukemia) | TGI (K-562 leukemia) | TGI (NCI-H226 lung) | TGI (NCI-H23 lung) | TGI (UACC-62 melanoma) | TGI (SR leukemia) | GI50 (NCI-H226 lung) |
| --- | --- | --- | --- | --- | --- | --- | --- | --- | --- | --- | --- |
| O=S(=O)(c1ccc(-c2nnc(-c3ccc(F)cc3)o2)cc1)c1ccc(-c2nnc(-c3ccc(F)cc3)o2)cc1 | > 100 µM | > 100 µM | > 100 µM | > 100 µM | > 100 µM | > 100 µM | > 100 µM | > 100 µM | > 100 µM |  |  |
| O=C1Nc2cc([N+](=O)[O-])c(Br)cc2C1=O | 47.5 µM | 35 µM |  | 37.1 µM |  | 55.7 µM | 76.4 µM | 31.9 µM | 42.4 µM | 37.4 µM |  |
| COc1ccc2c(c1)OCCc1cn[nH]c1-2 |  | > 100 µM |  | > 100 µM | 36 µM | > 100 µM |  | > 100 µM | 84.3 µM |  |  |
| CCCCCCCCCC(=O)N[C@@H](c1ccco1)[C@@H](O)C(=O)O[C@H]1C[C@@]2(O)[C@@H](OC(=O)c3ccccc3)[C@@H]3[C@]4(OC(C)=O)CO[C@@H]4C[C@H](O)[C@@]3(C)C(=O)[C@H](OC(C)=O)C(=C1C)C2(C)C | > 38.9 µM | 0.0335 µM |  | 8.73 µM | 0.0292 µM | > 50 µM | 9.53 µM | 11.4 µM | 9.53 µM | 10 µM |  |
| CC(=O)NNc1nc(C)c(C(=O)NNC(=O)C(=O)Nc2cccc(C(C)=O)c2)s1 | 31.6 µM | > 100 µM |  | 52.5 µM | 57.9 µM | > 100 µM | 62 µM | 35.2 µM | 31.4 µM | 45.8 µM |  |
| Cc1ccc(Sc2ccccc2[N+](=O)[O-])cc1 |  | 62.3 µM |  | 62.2 µM | 58.6 µM | > 100 µM | 71.2 µM | 78.2 µM | > 100 µM | > 100 µM |  |
| COc1ccc2nc3c(c(NCCCN(C)C)c2c1)CCCC3 | 27.9 µM | 23 µM |  | 33.9 µM | 29.6 µM | 8.3 µM | 30.7 µM | 31.4 µM | 31.2 µM | 5.77 µM |  |
| C[S+](C)CC1OC(n2cnc3c(N)ncnc32)C(O)C1O (configuration not stated) | > 225 µM | > 225 µM |  | > 225 µM | > 225 µM | > 225 µM | > 225 µM | > 225 µM | > 200 µM |  |  |
| Cc1nc2n(c1/C=C1/C(=O)Nc3ccccc31)CCS2 | > 100 µM | 47.6 µM | > 100 µM | > 100 µM | > 100 µM | > 100 µM |  | > 100 µM | > 100 µM |  |  |
| Cc1ccc(S(=O)(=O)NC(=O)NC(CCCCN=C(N)N)C(=O)O)cc1 (configuration not stated) |  | > 100 µM | > 100 µM | > 100 µM | > 100 µM | > 100 µM |  | > 100 µM | > 100 µM | > 100 µM |  |
| CCOC(=O)c1cc2c(OCc3ccccc3)c(OC)cc3c2c(n1)N(c1ccc(OC)cc1)C(C)C3 (configuration not stated) | > 50 µM | > 50 µM |  | > 50 µM | > 50 µM | > 50 µM |  | > 50 µM | > 50 µM | > 50 µM |  |
| CC1(C)C2CCC3(OCCO3)C1C(O)C2 (configuration not stated) | > 100 µM |  |  | > 100 µM | > 100 µM | > 100 µM | > 100 µM | > 100 µM | > 100 µM |  |  |
| CN1N=C(c2ccncc2)OC1c1cccc(C(F)(F)F)c1 (configuration not stated) |  | > 100 µM | > 100 µM | > 100 µM | > 100 µM | > 100 µM | > 100 µM | > 100 µM | > 100 µM |  |  |
| COc1cccc(/C(Cl)=C(\C=O)c2cccc(OC)c2)c1 | 70 µM | 24.2 µM |  | 20.1 µM | 12.5 µM | 46 µM | 24.8 µM | 22.7 µM | 18.8 µM | 39.5 µM |  |
| CCOC(=O)CCC1(C(=O)OCC)CCCC1=O (configuration not stated) | > 100 µM | > 100 µM |  | > 100 µM | > 100 µM | > 100 µM | > 100 µM | > 100 µM | > 100 µM | 60.4 µM |  |
| Cc1ccc(N(O)C(C)(C)C)cc1 | > 100 µM | > 100 µM |  | > 100 µM | > 100 µM | > 100 µM | > 100 µM | > 100 µM | > 100 µM |  |  |
| Cn1c([C@H](C#N)C(=O)c2cc(O)ccc2[N+](=O)[O-])nc2ccccc21 | > 100 µM | > 100 µM | > 100 µM | > 100 µM | > 100 µM |  |  | > 100 µM | > 100 µM | > 100 µM |  |
| Cc1cccc2nc3c(=O)[nH]c(=O)nc-3n(C)c12 | > 100 µM | > 100 µM | > 100 µM | > 100 µM | 45.9 µM | > 100 µM | > 100 µM | > 100 µM | > 100 µM |  |  |
| Cc1cn(C2CC(CCCO)C(CO)O2)c(=O)[nH]c1=O (configuration not stated) | > 100 µM | > 100 µM |  | > 100 µM | > 100 µM | > 100 µM | > 100 µM | > 100 µM | > 100 µM | > 100 µM | > 100 µM and 18.4 µM |
| CC1(C)C(CCO)CC1n1ccc(=O)[nH]c1=O (configuration not stated) | > 100 µM |  | > 100 µM | > 100 µM |  | 72.4 µM | > 100 µM |  | > 100 µM |  |  |
| CC(C)(O)C1CC[C@]2(C)[C@H]3CC[C@@H]4[C@@]5(C)CCCC(C)(C)[C@@H]5CC[C@@]4(C)[C@]3(C)CC[C@@H]12 (some centres not stated) | > 100 µM | > 100 µM | > 100 µM | > 100 µM | > 100 µM |  |  | > 100 µM | > 100 µM |  |  |
| CC(C)OP(=O)(OC(C)C)C1=NN(c2ccc([N+](=O)[O-])cc2)C(P(=O)(OC(C)C)OC(C)C)=NN1c1ccc([N+](=O)[O-])cc1 | > 100 µM | > 100 µM |  | > 100 µM | 16.4 µM | > 100 µM | > 100 µM | > 100 µM | > 100 µM | > 100 µM |  |
| CCN(CC)CCCNC(=O)c1cc2cc(NC(=O)c3cc4cc([N+](=O)[O-])ccc4[nH]3)ccc2[nH]1 | > 100 µM | > 100 µM | > 100 µM | > 100 µM |  | > 100 µM | > 100 µM | > 100 µM | 96.3 µM | > 100 µM |  |
| C=C1[C@@](C)([C@@H]2CCCS2)[C@H]2C(C)=C[C@]1(C)n1c(=O)n(-c3ccccc3)c(=O)n12 | > 100 µM | > 100 µM | > 100 µM | > 100 µM | > 100 µM |  | > 100 µM | > 100 µM | > 100 µM |  |  |
